# Laboratory results taken from patent US10398717B2, “Pharmaceutical composition based on a hepatoprotector and prebiotic, and method for administrating” (priority 2008, dated 2019).
# Key:
# Sprague-Dawley rats = experiment: High-fat diet induced non-alcoholic hepatitis model; type: in vivo; conditions: liver histology, day 121; oral administration during 90 days
# Procedure: The control group (Group 4, n=14 in each group) was administered an equal amount of 1% methyl cellulose suspension. The animals were monitored for 120 days on the background of continuous pathology induction. Administration of drugs began after 30 days from the beginning of diet supplementation (10 % lard and 2% cholesterol for each 100 g feed). The effect of therapy was assessed by biochemical parameters (ALT, AST, triglycerides) and liver histology. On day 121, animals were euthanized and liver histology was performed. In the control group, […] of animals developed steatosis.
# [1] = test system: patients with diffuse liver diseases (cirrhosis, hepatitis) with intrhepatic cholestasis syndrome; conditions: human, in vivo; cited from earlier work
# colon contents = conditions: in vivo; cited from earlier work
# [2] = cited from earlier work
smiles,measurement,setting,value
"C[C@H](CCC(=O)O)[C@H]1CC[C@H]2[C@@H]3[C@@H](O)C[C@@H]4C[C@H](O)CC[C@]4(C)[C@H]3CC[C@]12C [Group 3, ursodeoxycholic acid]","rats in which signs of steatosis, ballooning, and inflammation improved",Sprague-Dawley rats,50%
"C[S+](CC[C@H](N)C(=O)[O-])C[C@H]1O[C@@H](n2cnc3c(N)ncnc32)[C@H](O)[C@@H]1O (stereo partly drawn) [ademethionine, S-adenosil-L-metionine]","duration of antiasthenic, anticholestatic and hepatoprotective effects after the treatment was stopped",[1],3 months
same,patients with decrease of intensity of asthenic syndrome,[1],46%
same,patients with disappearance of asthenic syndrome,[1],54%
"OC[C@H]1O[C@@H](O[C@@H]2[C@@H](CO)O[C@](O)(CO)[C@H]2O)[C@H](O)[C@@H](O)[C@H]1O [lactulose, 4-0-D-galactopyranosyl-D-fructose]",increase of volume of colon contents,colon contents,about 30%
same,solubility in water,[2],very soluble in water
